Measured values published in patent US8124655B2, “Use of LR-90 and LR-102 to overcome insulin resistance” (City of Hope, priority 2007, dated 2012).

Key:
[1] = test system: Zucker diabetic fatty rats (ZDF, fa/fa); experiment: Metabolic data of ZDF rats treated with LR-90 or LR-102 (Example 2); format: in vivo, rat; conditions: ZDF rats at 40 weeks of age, Mean ± SEM
Experimental: The present Example presents the results of an investigation of the effects of LR-90, an inhibitor of AGE/ALE formation, in male Zucker diabetic fatty rats (ZDF, fa/fa) fed with Purina 5008 diet until 40 weeks of age, and their hetorozygous lean littermates (ZDF fa/+) as non-hyperglycemic controls. LR-90 at 50 mg/L of drinking water was given to a subgroup of ZDF rats after the rats developed spontaneous diabetes at 13 weeks of age. At 40 weeks of age, and before killing the animals, their weight was measured; HbA1c, plasma glucose, insulin, triglycerides, cholesterol, CRP and urinary albumin and creatinine concentrations were measured. After euthanizing all animals, organs such as the kidneys, eyeballs, liver, heart, aortae and pancreas were dissected and subjected to immunohistochemical staining, RT-PCR, Western blotting and microscopy.

[2] = described in U.S. Pat. No. 6,787,566; cited from earlier work
[3] = test system: Zucker diabetic fatty rats (ZDF, fa/fa); experiment: Pancreatic islet immunohistochemistry and PAMS staining (Example 2); format: in vivo, rat; conditions: FIG. 8
Source text: FIG. 7. Immunohistochemical analysis and quantification of islet cells. ZDF GM fa/fa rats and lean control rats were fed with high fat diet for 30 weeks and received either nothing or LR-90 or LR-102 in their drinking water. Pancreatic sections from various groups of animals were stained with anti-insulin antibody or anti-glucagon antibody. A. Representative images with the overlay of the insulin (green) and glucagon (red staining). […] B. Insulin-positive β-cell-to-glucagon-ratio was also measured from these images.
FIG. 8. Periodic acid methenamine silver (PAMS) staining of pancreatic tissues. Sections from cryopreserved pancreas of each group of animals on the study were stained with PAMS and examined under light microscopy.
LR-90 at 50 mg/L of drinking water was given to a subgroup of ZDF rats after the rats developed spontaneous diabetes at 13 weeks of age. At 40 weeks of age, and before killing the animals, their weight was measured; HbA1c, plasma glucose, insulin, triglycerides, cholesterol, CRP and urinary albumin and creatinine concentrations were measured. After euthanizing all animals, organs such as the kidneys, eyeballs, liver, heart, aortae and pancreas were dissected and subjected to immunohistochemical staining, RT-PCR, Western blotting and microscopy.

## CC(C)(Oc1ccc(N=Cc2ccc(C=Nc3ccc(OC(C)(C)C(=O)O)cc3)cc2)cc1)C(=O)O [LR-102, 1,4-benzene-bis[4-methyleneaminophenoxyisobutyric acid]]
[1]; drug in drinking water
  Plasma glucose: 29.8 ± 3.2 mmol/dL
[1]
  Cholesterol: 290 ± 35 mg/dL
  HbA1c: 2.80 ± 0.12%
  Plasma CRP: 0.77 ± 0.05 mg/mL
  Plasma insulin, ELISA: 0.68 ± 0.10 ng/mL
  Plasma insulin, RIA: 0.65 ± 0.10 ng/mL
  Triglycerides: 536 ± 63 mg/dL
  Urinary Albumin: 35.4 ± 15.8 mg/24 h
[2]
  breaking AGE-protein cross-links: active
[3]
  PAMS staining of pancreatic islets: amelioration
